Consider one compound from ChEMBL document CHEMBL1152177, “Imidazole pyrimidine amides as potent, orally bioavailable cyclin-dependent kinase inhibitors” (Bioorg Med Chem Lett, 2008).

Data set [1] can be described thus: Volume of distribution at steady state in nude mouse at 2.0 umol/kg, iv. The data set is classed as ADME, organism-based. The following applies: in vivo, read-out: Vdss.
The nature of data set [2]: Half life in Han-Wistar rat at 1.0 umol/kg, iv. Type of data set: ADME, organism-based. Particulars: in vivo.
The nature of data set [3]: Bioavailability in Han-Wistar rat at 20 umol/kg, po. The following applies: in vivo. Type of data set: ADME, organism-based.
Data set [4] can be described thus: Clearance in nude mouse at 2.0 umol/kg, iv. The data set is classed as ADME, organism-based. Particulars: in vivo.
A short description of data set [5]: AUC in nude mouse at 2.0 umol/kg, iv. Type of data set: ADME, organism-based. The following applies: plasma.
Data set [6] in a line: Volume of distribution at steady state in Han-Wistar rat at 1.0 umol/kg, iv. Particulars: in vivo, read-out: Vdss. Type of data set: ADME, organism-based.
The nature of data set [7]: Clearance in Han-Wistar rat at 1.0 umol/kg, iv. The data set is classed as ADME, organism-based. Particulars: in vivo.
A short description of data set [8]: AUC in Han-Wistar rat at 20 umol/kg, po. Type of data set: ADME, organism-based. The following applies: plasma.
A short description of data set [9]: Half life in nude mouse at 2.0 umol/kg, iv. Type of data set: ADME, organism-based. The following applies: in vivo.
The nature of data set [10]: Distribution coefficient, log D of the compound. The following applies: octanol/water. Type of data set: physicochemical.
Data set [11] in a line: AUC in Han-Wistar rat at 5 umol/kg, po. Particulars: plasma. Type of data set: ADME, organism-based.
Data set [12] in a line: Bioavailability in Han-Wistar rat at 5 umol/kg, po. Type of data set: ADME, organism-based. The following applies: in vivo.
A short description of data set [13]: AUC in Han-Wistar rat at 1.0 umol/kg, iv. Particulars: plasma. The data set is classed as ADME, organism-based.

For the compound `CNC(=O)c1ccc(Nc2nccc(-c3cnc(C)n3C(C)C)n2)cc1F`, the Vd in [1] worked out at 9.5 L/kg; in [6], 1.7 L/kg. The half-life (as a rule, how long it takes for the measured level to halve) in data set [2] was 5.8 h; in [9], 16.7 h. Also, the results for the bioavailability in data set [3] and in data set [12] were 47% and 21%, respectively. Besides, the clearance – broadly, the volume of plasma or blood freed of the substance per unit of time – stood at 1.11 L/h/kg in data set [4] and 0.714 L/h/kg in [7]. Moreover, the AUC (in general, concentration integrated over time) was 1800 nM·h in data set [5], 13700 nM·h in data set [8], 1500 nM·h in [11] and 1400 nM·h in data set [13]. Further, the pH-dependent lipophilicity (logD) (usually the decadic logarithm of the distribution of all forms, ionised or not, between an organic phase and buffer at a given pH) in data set [10] amounted to 3.
